Measured values from US10280197B2, “Discovery of the first selective C5A receptor 2 (C5L2/C5AR2) ligands” (The Regents of the University of California, priority 2015, dated 2019).

Assays:
[1] = tested on: C5a-induced neutrophil mobilization; experiment: C5a-induced neutrophil mobilization in C5aR2-/- mice; format: in vivo, C5aR2-/- mice on a C57BL/6J background; settings: P32 3 mg/kg i.v. with C5a 50 μg/kg, 30 min
Protocol: (§1) FIG. 6 is a panel of graphs showing that P32 inhibits C5a-induced neutrophil mobilization in vivo in a C5aR2 dependent manner. Neutrophil mobilization quantified 30 min after i.v. injection of PBS, C5a (50 μg/kg), or P32 (3 mg/kg) with and without C5a present into the femoral vein of either C57BL/6J wild-type (6A) or C5aR2^−/− (6B) on a C57BL/6J background mice. Total circulating leukocyte counts were determined from blood smears and total white blood cell counts using a hemocytometer. Data are representative from at least 6 mice per treatment group and blood smears in triplicate (n=6). Error bars represent SEM. * P<0.05, *** P<0.001 by one-way ANOVA followed by Dunnett's post hoc test
(§2) To further explore the selectivity of the ligands P32 was tested in a mouse model of C5a-induced neutrophil mobilization (FIG. 6). […] Assuming a mouse blood volume of 2 mL for a 25 g mouse, a concentration of 3 mg/kg would result in Cmax blood concentrations of ˜50 uM, a dose within the active range of this compound from our in vitro studies

[2] = tested on: C5a-induced neutrophil mobilization; experiment: C5a-induced neutrophil mobilization in wild-type mice; format: in vivo, C57BL/6J wild-type mice; settings: P32 3 mg/kg i.v. with C5a 50 μg/kg, 30 min
Protocol: as §1, §2

## Ac-RHYPYWR-OH [Peptide P32, Ac-RHYPYWR-OH]
[1]
  inhibition of C5a-induced neutrophil mobilization: attenuated
[2]
  inhibition of C5a-induced neutrophil mobilization: significantly inhibit
